Test results reported in patent US11147797B2, “Photodynamic therapeutic compounds and photodynamic methods of treatment” (SALT AND LIGHT PHARMACEUTICALS PTY. LTD., priority 2016, dated 2021).

Experiments:
[1] = tested on: binding between Ras and Ras-binding domain (RBD) of Rafl; test: Ras pulldown with inhibitor interference (Active Ras PullDown and Detection Kit, Western blot)
Source text: 1.5.1 Ras pulldown with inhibitor interference: Inhibition of compounds on binding between Ras and Ras-binding domain (RBD) of Rafl was firstly analysed using Active Ras PullDown and Detection Kit (Thermofisher Scientific, Catalogue no 16117). The protocol was in accordance with the manual supplied with the kit. Western blot analysis was used to measure the inhibition. The known Inhibitor Kobe0065 was purchased from Focus Biosciences, Australia (www.focusbio.com.au) and used as the positive control.

Ras-Raf binding = test: Ras activation ELIZA kit assay (chemiluminescent)
Protocol: 1.5.2 ELIZA Assay: Another method to detect the inhibition of the Representative Compounds used a Ras activation ELIZA kit (Merck Millipore, Cat no 17-497). The protocol was in accordance with the manual provided with the kit. The inhibition was measured using a Chemiluminescent imaging system. The known inhibitor Kobe0065 was purchased from Focus Biosciences, Australia (www.focusbio.com.au) and used as the positive control.

Absorption spectrum = format: physicochemical; conditions: compound 10 μM; long wavelength range
Protocol: 1.4 Absorption spectrum: The absorption spectra of the Representative Compounds were acquired. The concentration of compound was 10 μM.

HCT-116 cells = test: Cell proliferation assay (Cell Titre-Blue Cell Viability Assay); format: cell-based; conditions: Homo sapiens; HCT-116 colon-cancer cell line; FIG. 9, FIG. 10; read-out: IC50, inhibition of cell growth of HCT-116
Protocol: 1.8 Cells: Human cell lines were obtained from the NIH cell culture and cultured in media recommended by supplier.
1.9: Cell Proliferation Assays: Cells (2-3000) were seeded in a 96-well plate and cultured in McCoy's 5 containing 10% (vol/vol) FBS in the presence of one of compounds. Viable cell numbers were measured using a fluorometric kit (“Cell Titre-Blue Cell Viability Assay”: Promega Inc, USA). The viable cells convert blue colour dye to red/pink after incubating at 37 degrees with 5% CO2.

| SMILES | Ras-Raf inhibition, Ras pulldown ([1]; 10 uM compound) | Ras-Raf inhibition, Ras pulldown ([1]; 50 uM compound) | Ras-Raf inhibition, ELIZA (Ras-Raf binding; 10 uM compound) | Ras-Raf inhibition, ELIZA (Ras-Raf binding; 50 uM compound) | IC50 (Ras-Raf binding; estimated from Table 2, read-out: inhibition IC50, Ras activation ELIZA assay) | IC50 ([1]; estimated from Table 2, read-out: inhibition IC50, Ras pulldown assay) | inhibition in Ras activation ELIZA assay compared with Ras pulldown assay (Ras-Raf binding; in words) | absorption band (Absorption spectrum) | IC50 (HCT-116 cells) |
| --- | --- | --- | --- | --- | --- | --- | --- | --- | --- |
| Cc1ccc(NC(=S)NNc2c([N+](=O)[O-])cc(C(F)(F)F)cc2[N+](=O)[O-])cc1Cl [Kobe0065, reference compound] | 0% | 76% | 66.8% | 73.11% | < 10 µM |  |  |  |  |
| C1=Cc2nc1c(-c1ccncc1)c1ccc([nH]1)c(-c1ccncc1)c1nc(c(-c3ccncc3)c3ccc([nH]3)c2-c2ccncc2)C=C1 [Representative Compound 1] | 0% | 76.5% | 34.61% | 35.73% |  | 10 to 50 µM | much weaker |  |  |
| C[n+]1cccc(-c2c3nc(c(-c4ccccc4)c4ccc(cc5nc(c(-c6ccccc6)c6ccc2[nH]6)C=C5)[nH]4)C=C3)c1.[I-] [Representative Compound 10, 3-(10,20-diphenylporphyrin-5-yl)-1-methylpyridin-1-ium iodide] |  |  | 35.2% | 13.4% |  |  |  | 637 nm | 20 to 25 µM |
